This is an account of results in patent US20070173486A1, “Azetidinecarboxamide derivatives and their use in the treatment of cb1 receptor mediated disordrs” (VERNALIS RESEARCH LIMITED, priority 2003, published 2007).

Broadly, the Ki is the equilibrium dissociation constant of an inhibitor or competing ligand from its target.

T1 sequence (P21554 whole entry): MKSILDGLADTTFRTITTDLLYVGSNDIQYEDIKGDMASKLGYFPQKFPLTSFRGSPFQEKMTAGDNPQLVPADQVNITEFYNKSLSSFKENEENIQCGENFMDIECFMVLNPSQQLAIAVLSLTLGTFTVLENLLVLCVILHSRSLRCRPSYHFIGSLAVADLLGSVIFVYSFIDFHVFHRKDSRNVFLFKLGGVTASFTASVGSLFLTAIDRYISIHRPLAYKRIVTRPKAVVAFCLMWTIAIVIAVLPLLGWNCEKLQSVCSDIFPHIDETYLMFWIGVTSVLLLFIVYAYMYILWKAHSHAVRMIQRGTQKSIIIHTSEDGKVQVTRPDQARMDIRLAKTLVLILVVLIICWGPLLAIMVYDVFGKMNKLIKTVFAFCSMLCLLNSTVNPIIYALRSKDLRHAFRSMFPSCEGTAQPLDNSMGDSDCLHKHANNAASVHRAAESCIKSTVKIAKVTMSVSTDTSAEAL

This assay addresses T1, recombinant human CB1 receptors (Homo sapiens, UniProt P21554).
T1 construct: expressed in transfected cells; host or cells: HEK293
Nature of the assay: Binding to CB1 Receptors. As to conditions: [3H]-SR-141716A 1 nM; membranes from HEK293 cells expressing recombinant hCB1; Ki calculated from IC50 (Cheng-Prusoff). Here is the method: The binding of compounds of Formula I to recombinant human CB1 receptors was determined in vitro by standard methods, with reference to the procedure described by Rinaldi-Carmona et al. (Rinaldi-Carmona, M., Pialot, F., Congy, C., Redon, E., Barth, F., Bachy, A., Breliere, J. C., Soubre, P., LeFur, G., Life Sci. 1996, 58(15), 1239-1247). Membranes were prepared from HEK293 cells expressing recombinant hCB1 receptors. Binding assays are performed in a total volume of 250 μL, containing [^3H]-SR-141716A (1 nM final concentration), membranes and test compound. Non-specific binding is determined using CP55,940 (10 μM). Serial dilutions are performed starting from test compounds as 10 mM solutions in DMSO. Compounds are tested over the concentration range 10^−10 M to 10^−5 M. Ki values are calculated from IC50 values using the Cheng-Prusoff equation.
For the compound `CO[C@H](C(=O)N1CC(OC(c2ccc(Cl)cc2)c2ccc(Cl)cc2Cl)C1)c1ccccc1` (stereo partly drawn) [Example 11, 3-(2,4,4′-trichlorobenzhydryloxy)-1-[(S)-2-methoxy-2-phenylethanoyl]azetidine], the inhibition constant Ki is 3.2 nM.
Next, `CC(C)(C)NC(=O)N1CC(OC(c2ccc(Cl)cc2)c2cccnc2Cl)C1` (racemic) [Example 32, 3-[4-chloro-[…]-(2-chloropyridin-3-yl)benzyloxy]-N-(tert-butyl)azetidine-1-carboxamide]: 27.7 nM; `CC(C)(C)OC(=O)N1CCCN(C(=O)N2CC(OC(c3ccc(Cl)cc3)c3ccccc3Cl)C2)CC1` (stereo not drawn) [Example 1, 4-[3-(2,4′-dichlorobenzhydryloxy)azetidine-1-carbonyl]-[1,4]diazepine-1-carboxylic acid tert-butyl ester]: 0.8 nM; `CN(Cc1ccccc1)C(=O)N1CC(OC(c2ccc(Cl)cc2)c2ccccc2C(F)(F)F)C1` (stereo not drawn) [Example 4, 3-[2-(trifluoromethyl)-4′-chlorobenzhydryloxy]-N-methyl-N-benzyl-azetidine-1-carboxamide]: 1.5 nM.
Consider `CCCCS(=O)(=O)N1CC(OC(c2ccc(Cl)cc2)c2ccc(Cl)cc2Cl)C1` (stereo not drawn) [Example 20, 1-(n-butyl)sulfonyl-3-(2,4,4′-trichlorobenzhydryloxy)azetidine], for which the Ki is 5.5 nM.
The result for `CC(C)(C)NC(=O)N1CC(OC(c2ccc(Cl)cc2)c2cccnc2Cl)C1` (single isomer, unassigned) [Example 34, 3-[(S*)-4-chloro-[…]-(2-chloropyridin-3-yl)benzyloxy]-N-(tert-butyl)azetidine-1-carboxamide] reads 8.6 nM.
